In PubChem BioAssay AID330 (DTP/NCI, 2004):
“And” between values parts separate entries of the source, which are not always exact repeats. Equal entries are not always repeated. Inconclusive results and toxic doses are left out. How the source made its calls: active means survival T/C of 150% or more; inactive means T/C below 125% in these data.

System: P388 leukemia ip, CD2F1 mice, survival T/C
Experiment: NCI In Vivo Anticancer Drug Screen. Data for tumor model P388 Leukemia (intraperitoneal) in CD2F1 (CDF1) mice
Details: endpoint: median survival time, higher = longer survival
Method in brief: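 Mice carrying the transplanted tumor received test compound or vehicle. Survival was recorded in each group, and the value is the treated-group measurement divided by that of the vehicle-treated control group.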

[1] = dose: 12.5 mg/kg/injection, schedule: Q01DX005 (ip), vehicle: Klucel (hydroxypropylcellulose) (HPC)
[2] = dose: 25.0 mg/kg/injection, schedule: Q01DX005 (ip), vehicle: Klucel (hydroxypropylcellulose) (HPC)
[3] = dose: 50.0 mg/kg/injection, schedule: Q01DX005 (ip), vehicle: Klucel (hydroxypropylcellulose) (HPC)
[4] = dose: 50.0 mg/kg/injection, schedule: Q01DX005 (ip), vehicle: saline with Tween-80
[5] = dose: 200.0 mg/kg/injection, schedule: Q01DX005 (ip), vehicle: saline with Tween-80
[6] = dose: 100.0 mg/kg/injection, schedule: Q01DX005 (ip), vehicle: saline with Tween-80
[7] = dose: 50.0 mg/kg/injection, schedule: Q01DX009 (ip), vehicle: Klucel (hydroxypropylcellulose) (HPC)
[8] = dose: 60.0 mg/kg/injection, schedule: Q01DX005 (ip), vehicle: saline with Tween-80
[9] = dose: 120.0 mg/kg/injection, schedule: Q01DX005 (ip), vehicle: saline with Tween-80
[10] = dose: 240.0 mg/kg/injection, schedule: Q01DX005 (ip), vehicle: saline with Tween-80
[11] = dose: 50.0 mg/kg/injection, schedule: Q01DX009 (ip), vehicle: saline with Tween-80
[12] = dose: 100.0 mg/kg/injection, schedule: Q01DX009 (ip), vehicle: saline with Tween-80

Measured: T/C

O=C1c2c(Cl)ccc([N+](=O)[O-])c2C(=O)c2c(Cl)ccc([N+](=O)[O-])c21
inactive: [1] 106 % of control | [2] 104 % of control | [3] 99 % of control and 104 % of control | dose: 100.0 mg/kg/injection, schedule: Q01DX005 (ip), vehicle: Klucel (hydroxypropylcellulose) (HPC) 94 % of control | dose: 200.0 mg/kg/injection, schedule: Q01DX005 (ip), vehicle: Klucel (hydroxypropylcellulose) (HPC) 94 % of control

COCCN1CC(=O)N2Cc3ccccc3CN2C(=O)C1
inactive: dose: 12.5 mg/kg/injection, schedule: Q01DX005 (ip), vehicle: saline with Tween-80 107 % of control | dose: 25.0 mg/kg/injection, schedule: Q01DX005 (ip), vehicle: saline with Tween-80 105 % of control | [4] 100 % of control and 101 % of control | [5] 101 % of control

O=S(=O)(Nc1ccccn1)c1ccc(N=Cc2c3ccccc3nc3cc(Cl)ccc23)cc1
inactive: [4] 91 % of control | [6] 88 % of control

CC(C)C(NC(=O)c1ccccc1)C(=O)O (configuration not stated)
inactive: [4] 98 % of control | [6] 93 % of control | [5] 88 % of control

CCOC(=O)Nc1nn(-c2ccc3ccccc3n2)c(=O)[nH]1
inactive: [7] 113 % of control | dose: 100.0 mg/kg/injection, schedule: Q01DX009 (ip), vehicle: Klucel (hydroxypropylcellulose) (HPC) 109 % of control | dose: 200.0 mg/kg/injection, schedule: Q01DX009 (ip), vehicle: Klucel (hydroxypropylcellulose) (HPC) 118 % of control

COC(=O)Nc1cn2c(n1)SCC2
inactive: [8] 98 % of control | [9] 95 % of control | [10] 100 % of control

O=C(O)Cc1c(-c2noc(-c3ccccc3)c2CC(=O)O)noc1-c1ccccc1
inactive: [8] 99 % of control | [9] 103 % of control | [10] 108 % of control

CC1=NC(C#N)=C(C#N)N=C(C)C1
inactive: dose: 12.5 mg/kg/injection, schedule: Q01DX009 (ip), vehicle: Klucel (hydroxypropylcellulose) (HPC) 93 % of control | dose: 25.0 mg/kg/injection, schedule: Q01DX009 (ip), vehicle: Klucel (hydroxypropylcellulose) (HPC) 94 % of control | [7] 93 % of control

COc1ccccc1N/N=c1\c2nc3ccccc3nc1n(-c1ccccc1C)c(=S)n2-c1ccccn1
inactive: [8] 102 % of control | [9] 96 % of control

CCOC(=O)/C(C#N)=C\c1ccc(/C=C(\C#N)C(=O)OCC)cc1
inactive: dose: 25.0 mg/kg/injection, schedule: Q01DX009 (ip), vehicle: saline with Tween-80 90 % of control | [11] 100 % of control | [12] 90 % of control | dose: 100.0 mg/kg/injection, schedule: Q04DX003 (ip), vehicle: saline with Tween-80 95 % of control

CNc1ccccc1Br
inactive: [4] 100 % of control | [6] 100 % of control | [5] 100 % of control

COc1ccc(C(=O)CC2CCCC(CC(=O)c3ccc(OC)cc3)N2C)cc1 (configuration not stated)
inactive: [11] 100 % of control | [12] 101 % of control

O=C(NC1CCOC1=O)c1ccc(N=C=S)cc1 (configuration not stated)
inactive: dose: 25.0 mg/kg/injection, schedule: Q04DX003 (ip), vehicle: Klucel (hydroxypropylcellulose) (HPC) 104 % of control | dose: 50.0 mg/kg/injection, schedule: Q04DX003 (ip), vehicle: Klucel (hydroxypropylcellulose) (HPC) 107 % of control | dose: 100.0 mg/kg/injection, schedule: Q04DX003 (ip), vehicle: Klucel (hydroxypropylcellulose) (HPC) 101 % of control and 106 % of control

O=S(=O)(n1ccnc1)C(F)(F)F
inactive: dose: 12.5 mg/kg/injection, schedule: Q01DX001 (ip), vehicle: saline 101 % of control | dose: 25.0 mg/kg/injection, schedule: Q01DX001 (ip), vehicle: saline 96 % of control | dose: 50.0 mg/kg/injection, schedule: Q01DX001 (ip), vehicle: saline 96 % of control

N=c1c2ncn3c(=O)n(-c4ccccc4)c(nc(=O)n1-c1ccccc1)c23
inactive: [8] 101 % of control | [9] 100 % of control | [10] 98 % of control

O=C1Cc2ccccc2C(O)=C1c1cnccn1
inactive: dose: 15.0 mg/kg/injection, schedule: Q01DX005 (ip), vehicle: saline with Tween-80 93 % of control | dose: 30.0 mg/kg/injection, schedule: Q01DX005 (ip), vehicle: saline with Tween-80 99 % of control | [8] 101 % of control and 102 % of control

O=S(=O)(F)c1nc(Cl)c2[nH]cnc2n1
inactive: [1] 106 % of control | [2] 114 % of control | [3] 110 % of control and 114 % of control

CC(C)(C)c1cc(C#CC#Cc2cc(C(C)(C)C)cc(C(C)(C)C)c2)cc(C(C)(C)C)c1
inactive: [2] 86 % of control | [3] 86 % of control

O=C1CS/C(=N\C(=O)Nc2cccc(C(F)(F)F)c2)N1
inactive: dose: 12.5 mg/kg/injection, schedule: Q01DX009 (ip), vehicle: saline 103 % of control | dose: 25.0 mg/kg/injection, schedule: Q01DX009 (ip), vehicle: saline 94 % of control | [11] 87 % of control
